# Laboratory results reported in ChEMBL document CHEMBL2040799, “Exploring the Requirements for the Hydrophobic Scaffold and Polar Amine in inhibitors of M2 from Influenza A Virus” (ACS Med Chem Lett, 2011).
# What was measured:
# [1] = tested on: Matrix protein 2 (Influenza A virus), P06821 [withheld]; assay: Inhibition of Influenza A Virus M2 proton channel S31N mutant expressed in Xenopus laevis oocytes at 100 uM after 2 mins by two-electrode patch clamp assay; format: cell-based; conditions: Oocyte
# [2] = tested on: Matrix protein 2 (Influenza A virus), P06821 [V27A]; assay: Inhibition of Influenza A Virus M2 proton channel V27A mutant expressed in Xenopus laevis oocytes at 100 uM after 2 mins by two-electrode patch clamp assay; format: cell-based; conditions: Oocyte
Compound,inhibition [1] [%],inhibition [2] [%]
OC12CC3CC(CC(C3)C1)C2,33,< 15
CC1(O)C2CC3CC(C2)CC1C3 (stereo not given),33,< 15
O=C1CC2(CCCCC2)CC(=O)N1,33,< 15
N=C(NO)C12CC3CC(CC(C3)C1)C2,33,< 15
C1CC2CC1C1CNC21 (stereo not given),33,< 15
NC1C2CC3CC(C2)CC1C3 (stereo not given),33,< 15
NC12CC3CCC(CC(C3)C1)C2,33,< 15
C1CC2CC1C1CNCC21 (stereo not given),33,< 15
C1CC2CCC1CNC2,33,< 15
NC1C2C3CC4C1C1C2CC3C41 (stereo not given),33,< 15
NN1C(=O)CC2(CCCCC2)CC1=O,33,< 15
CC1(C)C(N)C1(C)C,33,< 15
NC12CC3CC(C1)CC(CO)(C3)O2,33,< 15
NC1CCC2(CCCCC2)CC1,33,< 15
NNC1CCC2(CCCCC2)CC1,33,< 15
N=C(N)NC12CC3CC(CC(C3)C1)C2,33,< 15
NN1CCC2(CCCCC2)CC1,33,< 15
CC(C)(C)c1ccc(CN)cc1,33,< 15
OC1C2C3CC4C2C(O)C2C1C3C42 (stereo not given),33,< 15
NOC12CC3CC(CC(C3)C1)C2,33,< 15

Compound,inhibition [1] [%],inhibition [2] [%]
NC1CC2CC1C1CCCC21 (stereo not given),33,< 15
CC(C)(C)CC(C)(C)N,33,< 15
N=C(N)NC(=N)NC12CC3CC(CC(C3)C1)C2,33,< 15
OC1C2C3CC4C1C1C2CC3C41 (stereo not given),33,< 15
NC12CC3CC(C1)CC(O)(C3)C2,33,< 15
OC1CC2C3CCC(C3)C2C1O (stereo not given),33,< 15
NC(=O)C12CC3CC(CC(C3)C1)C2,33,< 15
N=C(N)NCC12CC3CCC(CC(C3)C1)C2,33,< 15
CC12CC3(O)CC1(C)CC3(O)C2,33,< 15
O=S(=O)(O)C12CC3CC(CC(C3)C1)C2,33,< 15
O=C1C2CC3CC(C2)CC1C3,33,< 15
C1NC2CC3CC1CC(C3)C2,33,< 15
NC12CC3CC(CC(C3)C1)C2,35,0
C1CCC2(CC1)CCNCC2,33,< 15
NC1Cc2ccccc2C1,33,< 15
NC1C2C3CC4C2C(O)C2C1C3C42 (stereo not given),33,< 15
OC1CCC(C2CC3CCC2C3)CC1O (stereo not given),33,< 15
N=C(N)C12CC3CC(CC(C3)C1)C2,33,< 15
NC12CCC3CC(CC(C3)C1)C2,33,< 15
NC(CO)C12CC3CC(CC(C3)C1)C2 (stereo not given),15,4
